Data: patent US12661308B2, “Antimicrobial AZO compounds and uses thereof” (The Regents Of The University Of Colorado, A Body Corporate, priority 2019, dated 2026)

Tests used:
[1] = tested on: S. mutans (ATCC 25175) biofilm; test: Detachment study of S. mutans biofilm on monomer-coated polymeric substrates (Example 1); format: cell-based, Streptococcus mutans; settings: for detachment of S. mutans biofilm (CFU removed): 50 mg/mL coating solution, light/wash treatment
Protocol: The polymeric substrates were prepared by mixing 54 wt % methyl methacrylate (MMA), 30 wt % polymethylmethacrylate (PMMA, MW ˜35 k), and 16 wt % tetraethylene glycol dimethacrylate (TEGDMA) at 70° C. for 2 hr. After mixing, 1 wt. % azobisisobutyronitrile (AIBN) was added to the formulation as an initiator and mixed.
The mixed formulation was added to circular molds (diameter=6.5 mm) cut from a strip of rubber (thickness=0.9 mm) and pressed between two glass microscope slides. The mold was clamped together and thermally cured at 80° C. for 1.5 hr.
The polymeric substrates were coated as follows. Coating solutions were prepared having the following monomer concentrations (see FIG. 3 for structures of the monomers): 0.5 mg/mL and 50 mg/mL solutions of a phenolic acrylated azobenzene monomer (OH-AAZO), 50 mg/mL acrylated azobenzene monomer (AAZO), 50 mg/mL 4-hydroxyl benzylacrylate (HBA), 50 mg/mL 2-hydroxylethyl methacrylate (HEMA).
The coating solutions included the monomer in N,N′-dimethylformamide (DMF) along with 0.5 mg/mL of AIBN and 0.1 mg/mL of Rhodamine B as an indicator dye. Once mixed, 3 μL of each coating solution was pipetted onto one side of the polymeric substrate and spun at 1000 RPM for 1 min followed by spinning at 6000 RPM for 3 s. The coating was cured under a nail lamp (Melody Susie UV Gel Nail Polish Dryer, Model DR-301C) for at least 15 min before repeating the coating procedure on the other side.
The controlled growth of biofilms varied depending on the bacteria strain. In the case of S. mutans, a BHI agar plate was streaked with S. mutans (ATCC 25175) and allowed to incubate at 37° C. in 5% CO2 for 60 hr to isolate a single bacterial colony. The colony was inoculated in 5 mL of BHI and allowed to incubate statically in the 5% CO2 incubator for 24 hr. The stock solution was diluted 1:50 in a 96-well plate containing the substrates of interest and allowed to incubate in the 5% CO2 incubator for an additional 24 hr.
The detachment study quantified the biofilm grown on each substrate via a series of washes in 1×PBS. The substrate was irradiated using a dental lamp (FlashMax P3 Ortho™, 1900 mW/cm2, wavelength=450-470 nm) on the underside of the vial for a total of ten 3 s irradiations per side. Following the series of washes, the substrate was sonicated for 10 min to remove the residual biofilm on the substrate. The wash solutions were serial diluted, plated, and grown at 37° C. and 5% CO2 to obtain the CFU count.
Images collected from a digital microscope (Zeiss Axioplan II microscope, 630×, step size 0.1 μm) after the substrate and bacteria were treated with BACLIGHT Live/Dead stain are included in FIG. 4.

[2] = tested on: S. mutans biofilm; test: S. mutans biofilm growth on coated pit and fissure dental sealants; format: cell-based, Streptococcus mutans; settings: coating on pit and fissure sealants
From the text: In some implementations, the azobenzene polymers can be used as an antimicrobial coating on pit and fissure dental sealants. […] Azobenzene coatings can be incorporated into pit and fissure sealants as an anti-bacterial coating to prevent tooth decay.

Compound | detachment of S. mutans biofilm (CFU removed) [1] | S. mutans biofilm growth [2] | S. mutans biofilm on substrate, Live/Dead stain microscopy ([1]; after wash/light treatment)
C=CC(=O)OCc1ccc(O)cc1 [HBA, 4-hydroxybenzyl acrylate] | minimal detachment |  | 
C=C(C)C(=O)OCCO [HEMA, 2-hydroxylethyl methacrylate] | minimal detachment |  | 
Acrylated azobenzene [AAZO] | minimal detachment | significantly reduced | still contained a robust S. mutans biofilm
